Laboratory results: the supplement of paper PMC5579334
± gives the standard deviation of the averaged measurements.

How the values were obtained:
[1] = tested on: HSC1 (primary human Schwann cells); experiment: drug sensitivity score (DSS, CellTiter-Glo viability, 72 h) (DSS (dimensionless)); higher = more sensitive; extreme values may be limits of the assay
How it was run: (§1)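 Viability was scored by CellTiter-Glo ATP luminescence, scaled from vehicle to positive-control wells, with duplicates averaged where present. The cells, MPNST lines and primary human Schwann cells at 750–1000 per well, sat 72 h at 37 °C, 5% CO2, in 384-well plates preprinted with each compound at five concentrations in 10-fold steps. Four-parameter logistic fits were run on the data. These fits give drug sensitivity score and relative IC50 censored at the top concentration, and percent inhibition is reported at the top concentration.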

[2] = tested on: HSC2 (primary human Schwann cells); experiment: as above
How it was run: as §1

S1507-2 [3] = experiment: as above
How it was run: as §1

S462 [4] = experiment: as above
How it was run: as §1

ST8814 [5] = experiment: as above
How it was run: as §1

STS26T [6] = experiment: as above
How it was run: as §1

[7] = tested on: HSC1 (primary human Schwann cells); experiment: drug sensitivity score (DSS, CellTox-Green cytotoxicity, 72 h) (DSS (dimensionless)); higher = more cytotoxic; extreme values may be limits of the assay
How it was run: (§2)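 MPNST cell lines and primary human Schwann cells were incubated 72 h at 37 °C in 384-well plates holding five 10-fold compound dilutions. CellTox-Green was added before seeding at a final 1:1000 dilution and reported fluorescence from DNA released by disrupted cells. Signals were scaled to vehicle and positive-control wells, and cultures failing plate quality control were dropped. Drug sensitivity score and relative IC50 come from four-parameter logistic fits, with IC50 censored at the top concentration.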

[8] = tested on: HSC2 (primary human Schwann cells); experiment: as above
How it was run: as §2

S1507-2 [9] = experiment: as above
How it was run: as §2

ST8814 [10] = experiment: as above
How it was run: as §2

STS26T [11] = experiment: as above
How it was run: as §2

[12] = tested on: HSC1 (primary human Schwann cells); experiment: % inhibition of CellTiter-Glo viability at highest tested concentration (72 h), relative to DMSO and benzethonium chloride controls; higher = more inhibition
How it was run: as §1

[13] = tested on: HSC2 (primary human Schwann cells); experiment: as above
How it was run: as §1

S1507-2 [14] = experiment: as above
How it was run: as §1

S462 [15] = experiment: as above
How it was run: as §1

ST8814 [16] = experiment: as above
How it was run: as §1

STS26T [17] = experiment: as above
How it was run: as §1

SMILES	drug sensitivity score [1]	drug sensitivity score [2]	drug sensitivity score (S1507-2 [3])	drug sensitivity score (S462 [4])	drug sensitivity score (ST8814 [5])	drug sensitivity score (STS26T [6])	drug sensitivity score [7]	drug sensitivity score [8]	drug sensitivity score (S1507-2 [9])	drug sensitivity score (ST8814 [10])	drug sensitivity score (STS26T [11])	% inhibition [12]	% inhibition [13]	% inhibition (S1507-2 [14])	% inhibition (S462 [15])	% inhibition (ST8814 [16])	% inhibition (STS26T [17])
c1cc(CN2CCCNCCNCCCNCC2)ccc1CN1CCCNCCNCCCNCC1 [Plerixafor aq] (max concentration tested 10000 nM)	0	0	0	0	0	0	0	2.79	5.26 ± 3	0	0.908	-10.1%	-6.48%	-14.1 ± 20%	-4.54 ± 3.1%	4.25%	3.99%
CCCCCCCCCCCCCCCCCCOP(=O)([O-])OC1CC[N+](C)(C)CC1 [Perifosine aq/PBS] (max concentration tested 2500 nM)	0	0	0	0.0036 ± 0.0051	1.66	1.96	0	0	0	0.404	0.96	9.06%	7.97%	1.67 ± 4.5%	9.85 ± 1.6%	23.6%	32.7%
CCCCC/C=C/C=C1/C(=O)C=C[C@@H]1C/C=C\CCCC(=O)O [15D-PGJ2] (max concentration tested 800 nM)	0	0	0.113 ± 0.16	0	0	0	0	0	0	0	0	2.13%	0.683%	4.46 ± 11%	0.683 ± 8.3%	-9.15%	-0.85%
N[C@@H](Cc1ccc(N(CCCl)CCCl)cc1)C(=O)O [Melphalan aq] (max concentration tested 12500 nM)	0.445	0	0	0	0	0	0	0	0	0	0	18.7%	6.78%	6.15 ± 8.2%	5.6 ± 3%	3.22%	2.1%
CC1(C)CCC(CN2CCN(c3ccc(C(=O)NS(=O)(=O)c4ccc(NCC5CCOCC5)c([N+](=O)[O-])c4)c(Oc4cnc5[nH]ccc5c4)c3)CC2)=C(c2ccc(Cl)cc2)C1 [ABT-199] (max concentration tested 10000 nM)	0.0759	0.781	0	0.138 ± 0.2	0.111	0	0	0	0.226 ± 0.32	0.467	0	14.4%	23.8%	8.98 ± 1.1%	7.02 ± 15%	15.5%	3.69%
Cc1sc2c(c1C)C(c1ccc(Cl)cc1)=N[C@@H](CC(=O)OC(C)(C)C)c1nnc(C)n1-2 [(+)JQ1] (max concentration tested 10000 nM)	10.2	10.4	18.5 ± 0.8	11.3 ± 0.7	14.8	8.02	0	0	12.7 ± 1.7	5.02	0	61.1%	66%	86.1 ± 1%	69.3 ± 1.7%	75.6%	43.2%
CC(=O)O[C@]1(C(C)=O)CC[C@H]2[C@@H]3C=C(C)C4=CC(=O)CC[C@]4(C)[C@H]3CC[C@@]21C [Megestrol] (max concentration tested 10000 nM)	0	0	0	0	0	0	0	0	0	0	0	9.41%	8.15%	-2.04 ± 5.3%	2.52 ± 6.2%	4.75%	1.5%
CC[C@@]1(O)C(=O)OCc2c1cc1n(c2=O)Cc2cc3ccccc3nc2-1 [Camptotechin] (max concentration tested 5000 nM)	22.7	23.8	19.2 ± 0.92	26.995 ± 0.022	26.9	22	20.8	17.7	10.95 ± 0.027	30.9	13.2	101%	102%	100 ± 0.18%	103.58 ± 0.083%	100%	102%
